In patent publication US5614533A, “Substituted pipecolinic acid derivatives as HIV protease inhibitors” (Bio-Mega/Boehringer Ingelheim Research, Inc., priority 1994, dated 1997):
Read-outs that look alike come from different tables or passages of the source.

Assays:
HIV protease = target: T1, HIV protease (Human immunodeficiency virus type 1 group M subtype B, UniProt P04585); assay: Recombinant HIV Protease HPLC Assay; format: biochemical
T1 construct: HIV protease was expressed in E. coli; made in house; host or cells: E. coli (plasmid pBRT1 prt+)
Excerpt: The procedure is based on the capacity of the test compound to inhibit enzymatic cleavage by HIV protease of a decapeptide (the substrate) having an amino acid sequence which includes a known HIV protease cleavage site of a HIV polyprotein; see H. G. Krausslich et al., Proc. Natl. Acad. Sci. USA, 86, 807 (1989). Details of this assay together with the results obtained for exemplified compounds of formula 1 are described in the examples hereinafter.
Recombinant HIV Protease HPLC Assay:
Enzyme: HIV protease was expressed in E. coli {construct pBRT1 prt^+, see W. G. Farmerie et al., Science, 236, 305 (1987)}, according to the following protocol:
E. coli cells containing the pBRT1 prt^+ plasmid were used to inoculate a seed culture media composed of Luria-Bertani Broth containing 100 μg/mL of ampicillin. Flasks were incubated at 37° under agitation for 17 h. Production flasks containing sterile M9 broth, supplemented with 100 μg/mL of ampicillin, were inoculated at a level of 1% (v/v) using the seed culture described above. Total volume in each production flask was 500 mL in a 2 L Erlenmeyer flask. Flasks were incubated at 37° under agitation until a cell concentration corresponding to an optical density ([…]) of 0.6 was reached (no dilution). This time span was routinely 3-4 h. Flasks were then supplemented with 5 mM isopropylthiogalactoside (IPTG, Research Organics, Cleveland, Ohio, USA) and incubation was continued until the cell concentration reached an optical density of 0.2 at 16-fold dilution. Flasks were then supplemented with 1 mM phenylmethylsulfonyl fluoride (PMSF) and rapidly chilled to 4°. The bacterial cells were recovered by centrifugation at 4°. The wet pellet was stored at -70°.
All steps below were performed at 4° unless otherwise indicated. Thawed cells were mixed with buffer A {50 mM tris(hydroxymethyl)[…] HCl (Tris-HCl, pH 7.4); 0.6 mM ethylenediaminetetraacetic acid (EDTA); 0.375M NaCl, 0.2% Nonidet P-40® (BDH Chemicals Ltd., Poole, UK); 1 mM PMSF}, at a ratio of one part cells to nine parts buffer A. Diatomaceous earth (Celite 545®, John Manville, Lompoc, Calif. USA) was added at a ratio of two parts to one part of wet cell weight. The resulting slurry was homogenized at high speed (ca. 20,000 rpm) on a Waring® industrial blender for 8×15 sec. pulses. Cell debris/Celite® was collected by centrifugation and the resulting pellet was extracted with 4.5 parts of buffer A to one part wet solids using the homogenization procedure described above. Supernatants from both homogenization steps were combined and soluble protein was precipitated by the addition of solid (NH4)2 SO4 to yield a final concentration of 75% saturation. This mixture was agitated for 60 min and the precipitate was recovered by centrifugation. The resulting pellet was suspended in buffer B {50 mM Tris-HCl, pH 8; 30 mM NaCl; 1 mM DL-dithiothreitol (DTT); 1 mM EDTA; 1 mM PMSF; 10% glycerol}, and dialyzed for 18 h against the same buffer.
An aliquot of the dialyzed extract containing 150 mg of the protein was loaded onto a Sephadex A25® anion exchange column (Pharmacia, Uppsala, Sweden) with bed dimensions of 70 cm length and 2.5 cm diameter. The sample was eluted isocratically with buffer B at a linear flow rate of 10 cm/h. Fractions containing HIV protease activity (see below for assay description) were combined, and soluble protein was precipitated by the addition of saturated aqueous (NH4)2 SO4 to yield a total (NH4)2 SO4 concentration of 85% saturation. Precipitated protein was removed by centrifugation and the resulting pellet was dissolved in buffer C {50 mM 2-(4-morpholino)ethanesulfonic acid (MES), pH 5.5; 150 mM NaCl; 1 mM DTT; 1 mM EDTA; 10% glycerol}. This preparation was dialyzed for 18 h against buffer C, and then frozen at -70°. All crude extracts were purified by chromatography in aliquots containing 150 mg of protein in the same manner as described above. […]

[1] = system: HIV (H9/HTLV-IIIB) in C8166 cells; assay: plaque assay: inhibition of syncytia formation in HIV-infected C8166 cells; format: cell-based; conditions: Human immunodeficiency virus 1, IIIB, 72 h, 50% inhibition of syncytia formation
Excerpt: Typical of such procedures are those described by S. Harada and N. Yamamoto, Jpn. J. Cancer Res. (Gann), 76, 432 (1985), and S. Harada et al., Science, 229, 563 (1985). An assay based on the latter procedures is described in the examples hereinafter.
The following protocol, used for screening antiviral effects of the compounds of formula 1, is adapted from a plaque assay utilizing HTLV-I transformed cells, previously reported by Harada et al., supra. HTLV-I transformed cells are used because of the rapidity with which HIV will replicate in the cells.
1. The test compound is dissolved in dimethylsulfoxide to a concentration of 5 mg/mL. The resultant solution can be stored at 4° until use.
2. The resultant solution is diluted in RPMI 1640 (Gibco Laboratories, St. Lawrence, Mass., USA) to four times (4×) the final concentration which is to be tested. Once diluted in RPMI 1640, the solution is used in the cell culture assay within 4 h.
3. The 4× solution (50 μL) is added to triplicate wells of a 96 well flat bottomed microtiter plate. RPMI (50 μL) also is added to control wells.
4. C8166 cells (5×10^4) in 50 μL of HEPES-buffered RPMI 1640 (pH=7.2), 10% heat inactivated fetal calf serum (FCS), […] gentamicin (complete media) are added to all wells.
5. Fifty times TCID50 of H9/HTLV-IIIB stock (stored in liquid nitrogen as cell culture supernatant in 50% FCS) in 100 μL of complete media is added to all wells. Infectious titer of virus stocks are as previously determined by end point dilution on C8166 cells. Titer of stocks are stable for 6-12 months when stored at -193°.
6. Microtiter plates are then placed on level shelves of a 37°, 5% CO2 humidified incubator for 72 h.
7. Plates are then removed and centers of syncytia are counted in each well by low power phase contrast light microscopy. […] Control wells should have between 25 and 75 centers of syncytia per well.
8. Percent inhibition of syncytia formation is calculated by the formula: [formula]
The concentration of the test compound which causes a 50% inhibition of syncytia formation, i.e. the EC50, is determined by using the technique of serial dilution of the working solution at step 3 and by using non-linear regression analysis (SAS® program) to graphically plot the observed percent inhibition of syncytia formation against the various concentrations of the test compound.

IC50 (HIV protease; Table IV, 37°, 30 min, pH 5.5) [nM] | EC50 ([1]; Table IV) [nM] | IC50 (HIV protease) [nM] | IC50 (HIV protease; Table V, 37°, 30 min, pH 5.5) [nM] | EC50 ([1]; Table V) [nM] | SMILES
8 | 140 |  |  |  | CC(C)(C)NC(=O)[C@@H]1C[C@H](Sc2ccncc2)CCN1C[C@@H](O)[C@H](Cc1ccccc1)NC(=O)OCc1ccccc1 [Table IV, entry 29]
19 | 822 |  |  |  | CC(C)(C)NC(=O)[C@@H]1C[C@H](Sc2ncccn2)CCN1C[C@@H](O)[C@H](Cc1ccccc1)NC(=O)OCc1ccccc1 [Table IV, entry 30, N-tert-butyl-1-{3(S)-(benzyloxycarbonylamino)-2(R)-hydroxy-4-phenylbutyl}-4(R)-(2-pyrimidinylthio)piperidine-2(S)-carboxamide]
 | 290 | 12 |  |  | Cc1cc(C)nc(S[C@@H]2CCN(C[C@@H](O)[C@H](Cc3ccccc3)NC(=O)OCc3ccccc3)[C@H](C(=O)NC(C)(C)C)C2)n1 [Table IV, entry 31, N-tert-butyl-1-{3(S)-(benzyloxycarbonylamino)-2(R)-hydroxy-4-phenylbutyl}-4(R)-(4,6-dimethyl-2-pyrimidinylthio)-piperidine-2(S)-carboxamide]
3.7 | 15 |  |  |  | CC(C)[C@H](NC(=O)OCc1ccccc1)C(=O)N[C@@H](Cc1ccccc1)[C@H](O)CN1CC[C@@H](Sc2ncccn2)C[C@H]1C(=O)NC(C)(C)C [Table IV, entry 35, N-tert-butyl-1-{3(S)-{{N-(benzyloxycarbonyl)valyl}amino}-2(R)-hydroxy-4-phenylbutyl}-4(R)-(2-pyrimidinylthio)piperidine-2(S)-carboxamide]
3 | 9 |  |  |  | Cc1cc(C)nc(S[C@@H]2CCN(C[C@@H](O)[C@H](Cc3ccccc3)NC(=O)[C@@H](NC(=O)OCc3ccccc3)C(C)C)[C@H](C(=O)NC(C)(C)C)C2)n1 [Table IV, entry 36, N-tert-butyl-1-{3(S)-{{N-(benzyloxycarbonyl)valy}amino}-2(R)-hydroxy-4-phenylbutyl}-4(R)-(4,6-dimethyl-2-pyrimidinylthio)piperidine-2(S)-carboxamide]
2.3 | 7 |  |  |  | CC(C)[C@H](NC(=O)OCc1ccccc1)C(=O)N[C@@H](Cc1ccccc1)[C@H](O)CN1CC[C@@H](SCc2ccccc2)C[C@H]1C(=O)NC(C)(C)C [Table IV, entry 37, N-tert-butyl-1-{3(S)-{{N-(benzyloxycarbonyl)valyl}amino}-2(R)-hydroxy-4-phenylbutyl}-4(R)-(benzylthio)piperidine-2(S)-carboxamide]
4.3 | 14 |  |  |  | CC(C)[C@H](NC(=O)N(C)Cc1ccccn1)C(=O)N[C@@H](Cc1ccccc1)[C@H](O)CN1CC[C@@H](Sc2ccccc2)C[C@H]1C(=O)NC(C)(C)C [Table IV, entry 38, N-tert-butyl-1-{2(R)-hydroxy-3(S)-{N-{{N-methyl-N-(2-pyridinylmethyl)amino}carbonyl}valyl}-4-phenylbutyl}-4(R)-(phenylthio)piperidine-2(S)-carboxamide]
 |  |  | 3.6 | 7 | CC(C)[C@H](NC(=O)c1ccc2ccccc2n1)C(=O)N[C@@H](Cc1ccccc1)[C@H](O)CN1CC[C@@H](Sc2ncccn2)C[C@H]1C(=O)NC(C)(C)C [Table V, entry 1, N-tert-butyl-1-{2(R)-hydroxy-4-phenyl-3(S)-{{N-(2-quinolylinylcarbonyl)valyl}amino}butyl}-4(R)-(2-pyrimidinylthio)piperidine-2-carboxamide]
 |  |  | 2.8 | 4 | CC(C)[C@H](NC(=O)c1ccc2ccccc2n1)C(=O)N[C@@H](Cc1ccccc1)[C@H](O)CN1CC[C@@H](SCc2ccncc2)C[C@H]1C(=O)NC(C)(C)C [Table V, entry 2(S), N-tert-butyl-1-{2(R)-hydroxy-4-phenyl-3(S)-{{N-(2-quinolylinylcarbonyl)valyl}amino}butyl}-4(R)-{(4-pyridinylmethyl)thio}piperidine-2-carboxamide]
